{"source": "patent US20230270713A1", "about": "“Administration of Resiniferatoxin For Treatment of Bladder Pain or Bladder Cancer” (Sorrento Therapeutics, Inc., priority 2020, published 2023)", "tested_on": "dogs with bladder transitional cell carcinoma", "assay": "Change in lower urinary tract signs in dogs with bladder TCC (Example F)", "format": "in vivo, dog", "conditions": "for Improvement of at Least 1 Score, dogs n/N / Improvement of at Least 1 Score, percent of dogs / Improvement of at Least 2 Scores, dogs n/N / Improvement of at Least 2 Scores, percent of dogs / Improvement in at least 1 score (lower urinary tract signs), dogs n/N / Improvement in at least 1 score, percent of dogs / Improvement in at least 2 scores (lower urinary tract signs), dogs n/N / Improvement in at least 2 scores, percent of dogs: dogs with bladder TCC; for Improvement in at least 1 score (lower urinary tract signs), dogs n/N / Improvement in at least 1 score, percent of dogs / Improvement in at least 2 scores (lower urinary tract signs), dogs n/N / Improvement in at least 2 scores, percent of dogs: all RTX doses (25-100 μg)", "description": "Pre-treatment with diphenhydramine HCl intramuscular (2 mg/kg) was administered 30-45 minutes prior to RTX administration. Enrolled dogs were anesthetized and were monitored by auscultation and chest movement observation. Heart rate and oxygenation were monitored using a pulse oximeter throughout the duration of anesthesia. Blood pressure was monitored. Body temperature was maintained using a heated water blanket or equivalent thermal barrier (e.g., Vetko). Lactated Ringers Solution (LRS), or other medically appropriate fluid therapy, were used to maintain adequate hydration (approximately 2 mL/kg/hr intravenous (IV)) and a fluid bolus of LRS (2-5 mL/kg IV) as needed.\nRTX was administered as a one-time treatment into the bladder on Day 0 with the option of repeating RTX at a future study day. A Foley urinary catheter was placed using a sterile standard technique. An abdominal ultrasound was concurrently performed to ensure that the tip of the catheter was in the bladder lumen. Urine was removed using a catheter tipped syringe.\nRTX was diluted in 0.9% NaCl and then infused into the bladder. The catheter was then flushed with 5-6 mL of 0.9% NaCl to ensure the entire IVP volume was administered. The Foley catheter was capped and remained in place for a period of 30 minutes post-infusion. The bladder was then emptied prior to removal of the Foley catheter. The timing of recovery was managed on an individual basis, but it was recommended to initiate recovery approximately 10 minutes after RTX infusion.\nRTX total dose ranged from 25-100 μg (1.17-5.21 μg/kg). RTX was instilled at concentration of 1.0 μg/mL 2.0 μg/mL or 2.5 μg/mL.\nPrimary effectiveness variables: Evaluations of lower urinary tract signs, as reported by the owner, were used as the primary effectiveness endpoint for the study. The character of urination, frequency of urination (day), frequency of urination (night) and blood in urine (Knapp, 2010) were monitored. Blood in urine was assessed by owner through daily collection of first morning sample and the owner completed the “Owner urine collection log.” Comparisons were made for each parameter between Day 0 and subsequent study visits on Days 7 (±2), 14 (±2), 28 (±2), 56 (±2) and 84 (±2). Treatment success was defined as at least one grade improvement for each parameter.\nAt each study visit, the investigator graded lower urinary tract signs with input from the owner. Improvement in 1 or 2 grades are summarized by total RTX dose in Table 16 and then comparing those dogs receiving an RTX dose <3 μg/kg and 3 μg/kg in Table 17.", "key": {"[1]": {"conditions": "dogs with bladder TCC evaluable at Days 14-84"}}}
{"smiles": "C=C(C)[C@]12C[C@@H](C)[C@@]34O[C@](Cc5ccccc5)(O[C@@H]1[C@@H]3C=C(COC(=O)Cc1ccc(O)c(OC)c1)C[C@]1(O)C(=O)C(C)=C[C@@H]41)O2", "note": "[RTX, resiniferatoxin]", "values": [{"measurement": "dogs with improvement in at least 1 urinary symptom grade at each visit", "setting": "[1]", "value": "more than 50%"}, {"measurement": "dogs with improvement in at least 2 grades at each visit", "setting": "[1]", "value": "more than 40%"}, {"measurement": "Improvement of at Least 1 Score, dogs n/N", "setting": "RTX <3 μg/kg, Day 7", "value": "4/7"}, {"measurement": "Improvement of at Least 1 Score, percent of dogs", "setting": "RTX <3 μg/kg, Day 7", "value": "(57.1%)"}, {"measurement": "Improvement of at Least 2 Scores, dogs n/N", "setting": "RTX <3 μg/kg, Day 7", "value": "2/7"}, {"measurement": "Improvement of at Least 2 Scores, percent of dogs", "setting": "RTX <3 μg/kg, Day 7", "value": "(28.6%)"}, {"measurement": "Improvement of at Least 1 Score, dogs n/N", "setting": "RTX <3 μg/kg, Day 14", "value": "5/7"}, {"measurement": "Improvement of at Least 1 Score, percent of dogs", "setting": "RTX <3 μg/kg, Day 14", "value": "(71.4%)"}, {"measurement": "Improvement of at Least 2 Scores, dogs n/N", "setting": "RTX <3 μg/kg, Day 14", "value": "3/7"}, {"measurement": "Improvement of at Least 2 Scores, percent of dogs", "setting": "RTX <3 μg/kg, Day 14", "value": "(42.9%)"}, {"measurement": "Improvement of at Least 1 Score, dogs n/N", "setting": "RTX <3 μg/kg, Day 28", "value": "4/5"}, {"measurement": "Improvement of at Least 1 Score, percent of dogs", "setting": "RTX <3 μg/kg, Day 28", "value": "(80.0%)"}, {"measurement": "Improvement of at Least 2 Scores, dogs n/N", "setting": "RTX <3 μg/kg, Day 28", "value": "3/5"}, {"measurement": "Improvement of at Least 2 Scores, percent of dogs", "setting": "RTX <3 μg/kg, Day 28", "value": "(60.0%)"}, {"measurement": "Improvement of at Least 1 Score, dogs n/N", "setting": "RTX <3 μg/kg, Day 56", "value": "4/5"}, {"measurement": "Improvement of at Least 1 Score, percent of dogs", "setting": "RTX <3 μg/kg, Day 56", "value": "(80.0%)"}, {"measurement": "Improvement of at Least 2 Scores, dogs n/N", "setting": "RTX <3 μg/kg, Day 56", "value": "3/5"}, {"measurement": "Improvement of at Least 2 Scores, percent of dogs", "setting": "RTX <3 μg/kg, Day 56", "value": "(60.0%)"}, {"measurement": "Improvement of at Least 1 Score, dogs n/N", "setting": "RTX <3 μg/kg, Day 84", "value": "2/2"}, {"measurement": "Improvement of at Least 1 Score, percent of dogs", "setting": "RTX <3 μg/kg, Day 84", "value": "(100.0%)"}, {"measurement": "Improvement of at Least 2 Scores, dogs n/N", "setting": "RTX <3 μg/kg, Day 84", "value": "2/2"}, {"measurement": "Improvement of at Least 2 Scores, percent of dogs", "setting": "RTX <3 μg/kg, Day 84", "value": "(100.0%)"}, {"measurement": "Improvement of at Least 1 Score, dogs n/N", "setting": "RTX >= 3 μg/kg, Day 7", "value": "3/7"}, {"measurement": "Improvement of at Least 1 Score, percent of dogs", "setting": "RTX >= 3 μg/kg, Day 7", "value": "(42.9%)"}, {"measurement": "Improvement of at Least 2 Scores, dogs n/N", "setting": "RTX >= 3 μg/kg, Day 7", "value": "2/7"}, {"measurement": "Improvement of at Least 2 Scores, percent of dogs", "setting": "RTX >= 3 μg/kg, Day 7", "value": "(28.6%)"}, {"measurement": "Improvement of at Least 1 Score, dogs n/N", "setting": "RTX >= 3 μg/kg, Day 14", "value": "5/7"}, {"measurement": "Improvement of at Least 1 Score, percent of dogs", "setting": "RTX >= 3 μg/kg, Day 14", "value": "(71.4%)"}, {"measurement": "Improvement of at Least 2 Scores, dogs n/N", "setting": "RTX >= 3 μg/kg, Day 14", "value": "3/7"}, {"measurement": "Improvement of at Least 2 Scores, percent of dogs", "setting": "RTX >= 3 μg/kg, Day 14", "value": "(42.9%)"}, {"measurement": "Improvement of at Least 1 Score, dogs n/N", "setting": "RTX >= 3 μg/kg, Day 28", "value": "4/6"}, {"measurement": "Improvement of at Least 1 Score, percent of dogs", "setting": "RTX >= 3 μg/kg, Day 28", "value": "(66.7%)"}, {"measurement": "Improvement of at Least 2 Scores, dogs n/N", "setting": "RTX >= 3 μg/kg, Day 28", "value": "2/6"}, {"measurement": "Improvement of at Least 2 Scores, percent of dogs", "setting": "RTX >= 3 μg/kg, Day 28", "value": "(33.3%)"}, {"measurement": "Improvement of at Least 1 Score, dogs n/N", "setting": "RTX >= 3 μg/kg, Day 56", "value": "3/5"}, {"measurement": "Improvement of at Least 1 Score, percent of dogs", "setting": "RTX >= 3 μg/kg, Day 56", "value": "(60.0%)"}, {"measurement": "Improvement of at Least 2 Scores, dogs n/N", "setting": "RTX >= 3 μg/kg, Day 56", "value": "2/5"}, {"measurement": "Improvement of at Least 2 Scores, percent of dogs", "setting": "RTX >= 3 μg/kg, Day 56", "value": "(40.0%)"}, {"measurement": "Improvement of at Least 1 Score, dogs n/N", "setting": "RTX >= 3 μg/kg, Day 84", "value": "2/5"}, {"measurement": "Improvement of at Least 1 Score, percent of dogs", "setting": "RTX >= 3 μg/kg, Day 84", "value": 40.0, "unit": "%"}, {"measurement": "Improvement of at Least 2 Scores, dogs n/N", "setting": "RTX >= 3 μg/kg, Day 84", "value": "1/5"}, {"measurement": "Improvement of at Least 2 Scores, percent of dogs", "setting": "RTX >= 3 μg/kg, Day 84", "value": 20.0, "unit": "%"}, {"measurement": "Improvement in at least 1 score (lower urinary tract signs), dogs n/N", "setting": "Day 14", "value": "10/14"}, {"measurement": "Improvement in at least 1 score, percent of dogs", "setting": "Day 14", "value": 71.4, "unit": "%"}, {"measurement": "Improvement in at least 2 scores (lower urinary tract signs), dogs n/N", "setting": "Day 14", "value": "7/14"}, {"measurement": "Improvement in at least 2 scores, percent of dogs", "setting": "Day 14", "value": 50.0, "unit": "%"}, {"measurement": "Improvement in at least 1 score (lower urinary tract signs), dogs n/N", "setting": "Day 28", "value": "8/11"}, {"measurement": "Improvement in at least 1 score, percent of dogs", "setting": "Day 28", "value": 72.7, "unit": "%"}, {"measurement": "Improvement in at least 2 scores (lower urinary tract signs), dogs n/N", "setting": "Day 28", "value": "5/11"}, {"measurement": "Improvement in at least 2 scores, percent of dogs", "setting": "Day 28", "value": 45.5, "unit": "%"}, {"measurement": "Improvement in at least 1 score (lower urinary tract signs), dogs n/N", "setting": "Day 56", "value": "7/10"}, {"measurement": "Improvement in at least 1 score, percent of dogs", "setting": "Day 56", "value": 70.0, "unit": "%"}, {"measurement": "Improvement in at least 2 scores (lower urinary tract signs), dogs n/N", "setting": "Day 56", "value": "5/10"}, {"measurement": "Improvement in at least 2 scores, percent of dogs", "setting": "Day 56", "value": 50.0, "unit": "%"}, {"measurement": "Improvement in at least 1 score (lower urinary tract signs), dogs n/N", "setting": "Day 84", "value": "4/7"}, {"measurement": "Improvement in at least 1 score, percent of dogs", "setting": "Day 84", "value": 57.1, "unit": "%"}, {"measurement": "Improvement in at least 2 scores (lower urinary tract signs), dogs n/N", "setting": "Day 84", "value": "3/7"}, {"measurement": "Improvement in at least 2 scores, percent of dogs", "setting": "Day 84", "value": 42.9, "unit": "%"}, {"measurement": "dogs showing improved urine scores after a 2nd RTX administration", "setting": "of the 6 dogs with bladder TCC that received a 2nd RTX administration", "value": 1, "unit": "dog"}]}
